Publication PMC3361968 (Chemistry & biology, 2012)

Tests used:
cathepsin S = cathepsin S (Mus musculus, UniProt O70370); assay: activity-based labelling in living RAW cells, SDS-PAGE in-gel fluorescence; assay type: cell-based
cathepsin B = cathepsin B (Mus musculus, UniProt P10605); assay: as above; assay type: cell-based
cathepsin B, sequence (P10605 80-126): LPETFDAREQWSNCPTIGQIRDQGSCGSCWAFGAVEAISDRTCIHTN
cathepsin B, sequence (P10605 129-333): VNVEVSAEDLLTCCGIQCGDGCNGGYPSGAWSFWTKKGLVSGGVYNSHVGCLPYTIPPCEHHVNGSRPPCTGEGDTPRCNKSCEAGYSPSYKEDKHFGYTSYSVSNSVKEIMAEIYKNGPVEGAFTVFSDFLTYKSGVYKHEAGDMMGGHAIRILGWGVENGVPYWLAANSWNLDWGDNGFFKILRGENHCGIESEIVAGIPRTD

## CCN1C(=CC=CC=CC2=[N+](CCCCCC(=O)NCCCC[C@H](NC(=O)[C@H](Cc3ccccc3)NC(=O)OCc3ccccc3)C(=O)COC(=O)c3c(C)cccc3C)c3ccc(S(=O)(=O)O)cc3C2(C)C)C(C)(C)c2cc(S(=O)(=O)O)ccc21 [GB123]
Cathepsin S
  EC50: 1300 nM
Cathepsin B
  EC50: 1600 nM
